Measurements taken from patent publication US20250041245A1, “ENDOXIFEN FOR TREATMENT OF CANCERS” (Atossa Therapeutics, Inc., priority 2021, published 2025).
Values joined by “and” are separate entries in the source; they are usually repeats but may differ in a detail not shown here. Identical values can stand only once. “Also recorded” adds a separate entry of the source.

Legend:
Format in all cases: cell-based, human
Design in all cases: key to Personalization Category: Personalization categories range from High, Good, Moderate, Low, to None; Personalization categories range from High, Good, Moderate, Low, to None; Personalization categories range from High, Good, Moderate, Low, to None; Personalization categories range from High, Good, Moderate, Low, to None; Personalization categories range from High, Good, Moderate, Low, to None; key to Sensitivity Category: Sensitivity categories range from High, Good, Moderate, Low, to None; Sensitivity categories range from High, Good, Moderate, Low, to None; Sensitivity categories range from High, Good, Moderate, Low, to None; Sensitivity categories range from High, Good, Moderate, Low, to None; Sensitivity categories range from High, Good, Moderate, Low, to None; AUC: unit not given beside the values
[1] = tested on: patient-derived tumor organoids (PDTOs), cervical carcinoma; test: Endoxifen screen in PDTOs: cervical carcinoma
Method: (§1) This example describes screening endoxifen in patient-derived tumor organoids. Endoxifen was tested as a single agent on tumor organoids derived from patients diagnosed with various cancer types using a personalized cancer treatment screening assay (PARIS© Test, SEngine Precision Medicine). The screen utilized patient-derived tumor organoids (PDTOs) along with high-throughput drug screening and machine learning-guided data analysis to quantify the efficacy of endoxifen against samples derived from individual patients diagnosed with various cancer types. PDTOs are self-organizing, three-dimensional organoid structures that recapitulate structural, functional, and genomic aspects of in vivo organs. The PDTOs were grown in culture from patient tumor biopsy samples.
(§2) Fresh patient biopsy samples received following surgery were cleaned and purified. Immune cells (e.g., lymphocytes, blood cells), cancer-associated fibroblasts, and other non-tumor cells were removed to establish pure PDTOs for endoxifen testing. The tumor organoids were grown and expanded by supplying organ- and patient-specific growth factors and nutrients. The PDTOs were treated with increasing concentrations of endoxifen ranging from about 30 nM to about 10 μM, and the drug response was measured using a luminescence readout. A lower luminescence was indicative of a stronger drug response.
(§3) The results were analyzed using a “SEngine Precision Medicine” (SPM) scoring system to assess the sensitivity and personalization of each tumor organoid to endoxifen. The SPM score correlates with clinical outcomes, such that a higher SPM score for a specific PDTO-drug combination predicts a more favorable clinical outcome following treatment of the corresponding patient with the tested drug.
(§4) This example describes testing endoxifen efficacy against 17 distinct cancer types in patient-derived tumor organoids (PDTOs). Screening of PDTOs was performed as described in EXAMPLE 1. For each PDTO sample, the drug response was measured using a luminescent readout over a range of endoxifen concentrations. The drug response was evaluated based on the area under the fitted dose response curve (AUC) and the SPM scoring system. AUC values were normalized for each PDTO. Briefly, data points at each drug concentration were first normalized to a negative control, then a dose response drug curve was approximated using a four-parameter logistic model fitted to the normalized data points. The area under the curve was calculated from the normalized curve. Normalization allowed for comparison of AUC values between patient samples. The SPM scores were based on machine learning models that incorporate values for how well the drug kill patient cells (sensitivity metric), the relative drug responses of a patient to all other patients in a sample database (personalization metric), and knowledge of clinical outcomes for patients that had been evaluated with the personalized cancer screening assay (PARIS® Test, SEngine Precision Medicine).
The SPM scoring system evaluated whether a PDTO was unresponsive or responsive to endoxifen and the degree of drug response for PDTOs that were responsive to endoxifen. […] The sensitivity category was determined from the sensitivity metric and is a measure of overall cell death of a patient's cells in response to endoxifen at six concentrations. […]

[2] = tested on: patient-derived tumor organoids (PDTOs), gastric cancer; test: Endoxifen screen in PDTOs: gastric cancer; settings: each line one patient sample
Method: as §1, §2, §3, §4
(§5) The SPM scoring system evaluated whether a PDTO was unresponsive or responsive to endoxifen and the degree of drug response for PDTOs that were responsive to endoxifen. The SPM scoring system generated metrics an SPM score, predictive of clinical outcome, overall drug response (response category), drug sensitivity (sensitivity category), and drug personalization (personalization category). SPM scores ranged from 1-15, corresponding to the following drug response categories: no response (SPM 1-8), low response (SPM 9), moderate response (SPM 10-11), good response (SPM 12-13), and exceptional response (SPM 14-15). […] Moderate to good drug responses (SPM 10-13) may indicate that a drug has clinical relevance, possibly in combination with other drugs. The sensitivity category was determined from the sensitivity metric and is a measure of overall cell death of a patient's cells in response to endoxifen at six concentrations. […]

[3] = tested on: patient-derived tumor organoids (PDTOs), melanoma; test: Endoxifen screen in PDTOs: melanoma
Method: as §1, §2, §3, §4, §5

[4] = melanoma PDTOs, each line one patient sample

IC50 ([1]; Homo sapiens, Patient 10, four-parameter logistic fit): 3.48 µM
IC50 ([2]; four-parameter logistic fit): 6.55 µM and 6.73 µM and 2.45 µM and 4.14 µM and 2.89 µM and 4.86 µM
IC50 ([3]; Homo sapiens, skin cancer organoid assays, multiple skin cancers (summary statement)): < 10 µM
IC50 ([3]; melanoma PDTOs, each line one patient sample, four-parameter logistic fit): 2.74 µM and 3.3 µM and 1.44 µM and 7.06 µM
Compound: CC/C(=C(\c1ccc(O)cc1)c1ccc(OCCNC)cc1)c1ccccc1 [Endoxifen, 4-hydroxy-N-desmethyltamoxifen]
Personalization Category ([1]; Patient 10): Good
Sensitivity Category ([1]; Patient 10): Low
AUC ([1]; Patient 10, normalized area under fitted dose response curve): 0.8002
SPM Score ([1]; Patient 10, score range 1-15): 11
Personalization Category [2]: None and Low and High
Response Category [2]: None (no response (SPM 1-8)); also recorded: Low (low response (SPM 9)); also recorded: Good (good response (SPM 12-13)); also recorded: Moderate (moderate response (SPM 10-11))
Sensitivity Category [2]: Low and Moderate
AUC ([2]; normalized area under fitted dose response curve): 0.9503 and 0.8641 and 0.7529 and 0.8116 and 0.6723 and 0.8547
SPM Score ([2]; score range 1-15): 5 and 9 and 12 and 11 and 13 and 10
Personalization Category [3, 4]: Low and Good and High
Response Category [3, 4]: Low (low response (SPM 9)); also recorded: Moderate (moderate response (SPM 10-11)); also recorded: Good (good response (SPM 12-13))
Sensitivity Category [3, 4]: Low and Moderate
AUC ([3]; melanoma PDTOs, each line one patient sample, normalized area under fitted dose response curve): 0.8952 and 0.7865 and 0.6541 and 0.8094
SPM Score ([3]; melanoma PDTOs, each line one patient sample, score range 1-15): 9 and 11 (2×) and 13
